Measured values published in PMC13439108, “An antibody–drug conjugate active against antibiotic-resistant Neisseria gonorrhoeae” (Proceedings of the National Academy of Sciences of the …, 2026).
≈ marks a conversion by molar mass, not a printed value. Where a SMILES comes first, the peptide text is derived from it. [ ]: non-standard residue; d: D form. The star is where a group is joined. d(aIle) = CC[C@H](C)[C@@H](N)C(=O)O; dDab = NCC[C@@H](N)C(=O)O; Octanoyl = CCCCCCCC(=O)*; Dab = NCC[C@H](N)C(=O)O; AEEA = NCCOCCOCC(=O)O

What was measured:
N. gonorrhoeae WHO M = details: microdilution in FB, ~5 × 10^4 CFU, 24 hr, 37°C, 5% CO2
Procedure: (§1) columns (ThermoFisher scientific). Activated mAb was added to 0.9 mg of Oct-TriA1 analogues (synthesised by ISCA Biochemicals, UK) and incubated at room temperature for 60 min. ADCs were dialysed using slide-A-Lyzer cassette (20K MWCO, ThermoFisher scientific) into PBS overnight at 4 °C […]
(§2) MALDI-TOF MS analysis for determination of intact mass mAbs or ADCs with a concentration of 1 mg/mL were acidified with 1% trifluoroacetic acid and mixed with Super DHB matrix, 1 μl was spotted onto an MTP Anchorchip 600/384. For every mAb, three sample spots were prepared from the same solution using three protocols advised by the manufacturer. MALDI-TOF measurements were performed on a Microflex LRF mass spectrometer, equipped with a 60Hz nitrogen laser at 337nm. Number of peptides conjugated was calculated using the MALDI-TOF molecular weights (MW) [MW = M+] of each ADC, the unconjugated antibody (mAb), and the molecular weights of Oct-TriA1 analogues using the following equation.
(§3) Number of peptides = MW ADC − MW mAb […]
(§4) Determination of Oct-TriA1 Minimum Inhibitory Concentration (MIC)
(§5) N. gonorrhoeae was resuspended in PBS to an ODA600 1.0, and ̴5 × 10^4 CFU added to wells of a microdilution plate containing dilutions of antimicrobials in FB. Plates were incubated for 24 hr at […]
(§6) 37°C, in 5% CO2 then 10 μl aliquots plated onto GCB agar. The MIC was defined as the lowest concentration of an antimicrobial that prevented bacterial growth. […]
(§7) Peptide concentration in ADC preparations
(§8) Peptide concentrations for ADCs were calculated from the antibody concentration, the drug-to-antibody ratio (DAR), and the peptide molecular weight using the following formula:
(§9) Conc. peptide (µg/mL) = Conc. ADC (µg/mL) × DAR x MWpeptide (Da) […]
(§10) Where Conc. ADC is the ADC/ mAb concentration, MWADC is the mAb molecular weight (150 kDa), MWpeptide is the peptide molecular weight and DAR is the average number of peptides per conjugate.
(§11) This formula was used to convert ADC concentrations to peptide concentrations for all assays. […]

N. gonorrhoeae MS11 = details: microdilution in FB, ~5 × 10^4 CFU, 24 hr, 37°C, 5% CO2
Procedure: as §1, §2, §3, §4, §5, §6, §7, §8, §9, §10, §11

N. gonorrhoeae WHO L = details: microdilution in FB, ~5 × 10^4 CFU, 24 hr, 37°C, 5% CO2
Procedure: as §1, §2, §3, §4, §5, §6, §7, §8, §9, §10, §11

N. gonorrhoeae WHO N = details: microdilution in FB, ~5 × 10^4 CFU, 24 hr, 37°C, 5% CO2
Procedure: as §1, §2, §3, §4, §5, §6, §7, §8, §9, §10, §11

[1] = system: N. gonorrhoeae FA1090ΔmtrE; details: microdilution in FB, ~5 × 10^4 CFU, 24 hr, 37°C, 5% CO2
Procedure: as §1, §2, §3, §4, §5, §6, §7, §8, §9, §10, §11

N. gonorrhoeae MS11ΔmtrE = details: microdilution in FB, ~5 × 10^4 CFU, 24 hr, 37°C, 5% CO2
Procedure: as §1, §2, §3, §4, §5, §6, §7, §8, §9, §10, §11

N. gonorrhoeae FA1090 = details: microdilution in FB, ~5 × 10^4 CFU, 24 hr, 37°C, 5% CO2
Procedure: as §1, §2, §3, §4, §5, §6, §7, §8, §9, §10, §11

N. gonorrhoeae WHO O = details: microdilution in FB, ~5 × 10^4 CFU, 24 hr, 37°C, 5% CO2
Procedure: as §1, §2, §3, §4, §5, §6, §7, §8, §9, §10, §11

N. gonorrhoeae WHO P = details: microdilution in FB, ~5 × 10^4 CFU, 24 hr, 37°C, 5% CO2
Procedure: as §1, §2, §3, §4, §5, §6, §7, §8, §9, §10, §11

N. gonorrhoeae WHO G = details: microdilution in FB, ~5 × 10^4 CFU, 24 hr, 37°C, 5% CO2
Procedure: as §1, §2, §3, §4, §5, §6, §7, §8, §9, §10, §11

N. gonorrhoeae WHO F = details: microdilution in FB, ~5 × 10^4 CFU, 24 hr, 37°C, 5% CO2, lowest concentration preventing growth
Procedure: as §1, §2, §3, §4, §5, §6, §7, §8, §9, §10, §11

N. gonorrhoeae WHO K = details: microdilution in FB, ~5 × 10^4 CFU, 24 hr, 37°C, 5% CO2
Procedure: as §1, §2, §3, §4, §5, §6, §7, §8, §9, §10, §11

HK-2 cells = assay: LDH release cytotoxicity; format: cell-based, human; details: n = 3
Procedure: HK-2 cells (CRL-2190™, Americab Type Culutre Collection (ATCC)), a proximal renal tubule cell(7), and End1/E6E7 (CRL-2615™, ATCC) upper cervical epithelial cells(8) were cultured in Keratinocyte Serum Free Medium (Invitrogen, Life Technologies Ltd.) with human recombinant EGF (5 ng ml-1) and bovine pituitary extract (0.05 mg ml−1) at 37°C in 5% CO2. Cells were seeded in 96-well plates (Corning, Polystyrene) at a density of 2 × 10^4 cells/well 24 hr prior; Triton-X-100 (0.1%) and Digitonin (30 μg ml−1) were used as controls. Lactate dehydrogenase (LDH) release was measured using the Biovision kit; the OD490 was assessed in a SpectraMax M5 plate reader. […]

SMILES: CCCCCCCC(=O)N[C@@H](C(=O)N[C@H](CCN)C(=O)NCC(=O)N[C@H](CO)C(=O)N[C@H](Cc1c[nH]c2ccccc12)C(=O)N[C@@H](CO)C(=O)N[C@@H](CCN)C(=O)N[C@H](CCN)C(=O)N[C@@H](Cc1ccccc1)C(=O)N[C@@H](CCC(=O)O)C(=O)N[C@H](C(=O)N[C@@H](C(=O)N[C@@H](C)C(=O)NCCOCCOCC(=O)N[C@@H](CC(C)C)C(=O)N1CCC[C@H]1C(=O)N[C@@H](CCCNC(=N)N)C(=O)N1CCC[C@H]1C(=O)N1CCC[C@H]1C(=O)O)[C@@H](C)CC)C(C)C)C(C)C [Oct-TriA1-c] (Octanoyl-[dV][dDab]G[dS][dW]S[Dab][dDab]FEV[d(aIle)]A[AEEA]LPRPP-OH)
- MIC (N. gonorrhoeae WHO M): 1.56 µg/mL (≈ 0.701 µM)
- MIC (N. gonorrhoeae MS11): 3.13 µg/mL (≈ 1.41 µM)
- MIC (N. gonorrhoeae WHO L): 1.56 µg/mL (≈ 0.701 µM)
- MIC (N. gonorrhoeae WHO N): 3.13 µg/mL (≈ 1.41 µM)
- MIC [1]: 0.78 µg/mL (≈ 0.35 µM)
- MIC (N. gonorrhoeae MS11ΔmtrE): 1.56 µg/mL (≈ 0.701 µM)
- MIC (N. gonorrhoeae FA1090): 0.78 µg/mL (≈ 0.35 µM)
- MIC (N. gonorrhoeae WHO O): 3.13 µg/mL (≈ 1.41 µM)
- MIC (N. gonorrhoeae WHO P): 3.13 µg/mL (≈ 1.41 µM)
- MIC (N. gonorrhoeae WHO G): 3.13 µg/mL (≈ 1.41 µM)
- MIC (N. gonorrhoeae WHO F): 1.56 µg/mL (≈ 0.701 µM)
- MIC (N. gonorrhoeae WHO K): 3.13 µg/mL (≈ 1.41 µM)
- LDH (EC50) 4 h (HK-2 cells; 2 × 10^4 cells/well, LDH release OD490, 4 h): 86.42 µg/mL
- LDH (EC50) 24 h (HK-2 cells; LDH release OD490, 24 h): 57.71 µg/mL
- LDH (EC50) 48 h (HK-2 cells; LDH release OD490, 48 h): 50.03 µg/mL
